Tests used:
[1] = Equilibrium humidity evaluation 75% RH/40° C., 10 days (Example 8, Experiment 6); format: physicochemical
Protocol: The experimental procedure that accompany this experiment is provided in Section G.ii.
All forms were maintained under constant equilibrium humidity (75% RH). XRPD, DSC, TGA, PLM and ^1H NMR analyses were performed on the absorbents at t=5 d and t=10 d, to confirm their physical fates and to determine the extent of residual solvent exchange or sequestration.
100 mg portions of Tabernanthalog salts ([…]) were placed in the relevant open vials. The powders were finely divided and distributed evenly over the base of the vial, such that equal material coverage across the panel was observed. These samples were then maintained 40° C. under 75% RH. The samples were sub-sampled at intervals of 5 and 10 days and analyzed by ^1H NMR, HPLC, XRPD, DSC, TGA and PLM, for evidence of phase change or chemical degradation.

[2] = DVS analyses of sorbate salt Form A / Form C (Example 10); format: physicochemical; conditions: 0% to 90% to 0% RH
Source text: DVS analyses of Form A (Performed on batch reference: Experiment 11-Sample -A1) To determine whether Form A underwent form change at high % RH, DVS residues of Form A, from 0 to 80% RH and 0 to 90% RH, were examined. The specimens were equilibrated to constant mass, at 80% and 90% RH set-points, removed, placed in a capped vial, and analysed by XRPD and DSC. Based on the SC-XRD at 100 K, no regular voids in the crystal structure were large enough to accommodate non-crystal-bonded, molecular water with minimum probe radius of 1.4 Å.
The moisture sorption properties of the feed API were analysed by DVS Intrinsic instrument (Surface Measurement System). Approximately 20 to 50 mg of API was weighed onto an aluminium pan and loaded into the instrument equilibrated at 25° C. The sample was equilibrated under a dry atmosphere (0% relative humidity) for 60 minutes, before increasing the humidity from 0% to 30% at 5% step increment and from 30% to 90% at 10% step increment. A desorption cycle was also applied from 90% to 30% (10% step decrement) and from 30% to 0% (5% step decrement). A rate of change in mass per time unit (dm/dt) of 0.002%/min was set as the equilibrium parameter. Kinetic and isotherm graphs were calculated.
5. DVS Analyses: 0% to 90% DVS Mass Per Unit Time Equilibrated at Dm/Dt (0.0002%/Min)

In the case of `COc1ccc2c3c([nH]c2c1)CCN(C)CC3.O=C(O)/C=C/C(=O)O` [8-A4 of Example 5], the “Tabernanthalog RRT = 1.00 (trended HPLC data, chemical purity)” value ([1]; Fumarate salt, input before humidity exposure) is reported as 99.04.
In the case of `C/C=C/C=C/C(=O)O.COc1ccc2c3c([nH]c2c1)CCN(C)CC3.O` [Form C (Pattern #2)], the “form change during DVS” value [2] is reported as “reverted to Form A on the desorption cycle”.
With `COc1ccc2c3c([nH]c2c1)CCN(C)CC3.O=C(O)/C=C/C(=O)O` [Sample 6-A1] the “Tabernanthalog RRT = 1.00 (trended HPLC data, chemical purity)” value ([1]; Fumarate salt, t = 5 d at 75% RH at 40° C.) was 99.12.
For `COc1ccc2c3c([nH]c2c1)CCN(C)CC3.O=C(O)/C=C/C(=O)O` [Sample 6-A2], the “Tabernanthalog RRT = 1.00 (trended HPLC data, chemical purity)” value ([1]; Fumarate salt, t = 10 d at 75% RH at 40° C.) was 98.71.
In the case of `COc1ccc2c3c([nH]c2c1)CCN(C)CC3.O=C(O)C(O)C(O)C(=O)O` [Sample 6-B1], the “Tabernanthalog RRT = 1.00 (trended HPLC data, chemical purity)” value ([1]; Tartrate salt, t = 5 d at 75% RH at 40° C.) is reported as 98.86.
For `COc1ccc2c3c([nH]c2c1)CCN(C)CC3.O=C(O)C(O)C(O)C(=O)O` [Sample 6-B2], the “Tabernanthalog RRT = 1.00 (trended HPLC data, chemical purity)” value ([1]; Tartrate salt, t = 10 d at 75% RH at 40° C.) was 98.82.

Source: US20230257385A1, “SALT AND SOLID FORMS OF TABERNANTHALOG” (priority 2021, published 2023)
